Assay [1] concerns xenografts of the human vulval epidermoid carcinoma cell line A-431. The assay is described as follows: Test (d): in vivo inhibition of growth of A-431 xenografts in athymic nude mice. The following applies: tumor volume vs untreated control, dose of 50 mg/day/weight (kg), oral, once per day. As to the method: (d) In vivo assay on a group of athymic nude mice (strain ONU: Alpk) for determining the effect of a test compound (usually, ball-milled, prepared as a suspension in 0.5% polysorbate, and orally administered) in inhibiting the growth of xenografts of the human vulval epidermoid carcinoma cell line A-431
A-431 cells were maintained in a cultured product in DMEM having 5% FCS and 2 mM glutamine supplemented thereto. Freshly cultured cells were harvested by trypsinization and subcutaneously injected into both flanks of each of many donor nude mice (10000000 cells/0.1 ml/mouse). When a sufficient amount of tumorigen was obtained (about 9 to 14 days later), fragments of tumor tissue were transplanted in the flanks of recipient nude mice (test day 0). […] To these groups of mice, administration of the test compound was commenced. The test compound was administered once per day continuously for 13 days in total (including test day 7 to 19). In some tests, administration of the test compound was continued beyond test day 19, for example, to test day 26. In each case, the animals were killed on the following day and final tumor volume was calculated from the measurement values of the length and width of the tumors. The suppression percentage was calculated from the resultant tumor volume based on the control (untreated).

Assay [2] relates to liver cell growth stimulation induced by growth factor TGFα. Nature of the assay: Test (c): in vivo inhibition of liver cell growth stimulation induced by TGFα (BrdU uptake). The following applies: Rattus norvegicus; male rats, oral, inhibition of liver cell proliferation by BrdU uptake, approximate ED50. As to the method:
(c) In vivo assay for measuring the effect of a test compound (usually, ball-milled, prepared as a suspension in 0.5% polysorbate, and orally administered) in inhibiting liver cell growth stimulation induced by administration of growth factor TGFα (subcutaneous administration of 400 μg/kg, i.e., twice a usual dose, 3 hours and 7 hours respectively after administration of the test compound) in a group of male rats
In a control group of rats, administration of TGFα causes liver cell growth stimulation as large as on average 5 times.
Cell growth of control animals and test animals was measured in accordance with the following manner:
On the morning of the day after a test compound (or 0.5% polysorbate in a control group) was administered, bromodeoxyuridine (BrdU; intraperitoneally 100 mg/kg) was administered to animals. Four hours later, the animals were killed and the livers were excised out. Slices were cut out from each liver, and BrdU uptake was measured in the same manner as in conventional immunohistological techniques described below:
To calculate an approximate ED50 value on inhibition of liver cell proliferation measured by inhibition of BrdU uptake, tests were further performed using the test compound within a predetermined dose range.

The target of assay [3] is T1, EGF receptor tyrosine kinase (Homo sapiens, UniProt P00533).
T1 construct: Receptor tyrosine kinase was obtained from A-431 cells (derived from human vulval carcinoma) in partially purified form; endogenous in cells; host or cells: A-431 cells (human vulval carcinoma); solubilised membrane preparation
T1 sequence (P00533 25-1210): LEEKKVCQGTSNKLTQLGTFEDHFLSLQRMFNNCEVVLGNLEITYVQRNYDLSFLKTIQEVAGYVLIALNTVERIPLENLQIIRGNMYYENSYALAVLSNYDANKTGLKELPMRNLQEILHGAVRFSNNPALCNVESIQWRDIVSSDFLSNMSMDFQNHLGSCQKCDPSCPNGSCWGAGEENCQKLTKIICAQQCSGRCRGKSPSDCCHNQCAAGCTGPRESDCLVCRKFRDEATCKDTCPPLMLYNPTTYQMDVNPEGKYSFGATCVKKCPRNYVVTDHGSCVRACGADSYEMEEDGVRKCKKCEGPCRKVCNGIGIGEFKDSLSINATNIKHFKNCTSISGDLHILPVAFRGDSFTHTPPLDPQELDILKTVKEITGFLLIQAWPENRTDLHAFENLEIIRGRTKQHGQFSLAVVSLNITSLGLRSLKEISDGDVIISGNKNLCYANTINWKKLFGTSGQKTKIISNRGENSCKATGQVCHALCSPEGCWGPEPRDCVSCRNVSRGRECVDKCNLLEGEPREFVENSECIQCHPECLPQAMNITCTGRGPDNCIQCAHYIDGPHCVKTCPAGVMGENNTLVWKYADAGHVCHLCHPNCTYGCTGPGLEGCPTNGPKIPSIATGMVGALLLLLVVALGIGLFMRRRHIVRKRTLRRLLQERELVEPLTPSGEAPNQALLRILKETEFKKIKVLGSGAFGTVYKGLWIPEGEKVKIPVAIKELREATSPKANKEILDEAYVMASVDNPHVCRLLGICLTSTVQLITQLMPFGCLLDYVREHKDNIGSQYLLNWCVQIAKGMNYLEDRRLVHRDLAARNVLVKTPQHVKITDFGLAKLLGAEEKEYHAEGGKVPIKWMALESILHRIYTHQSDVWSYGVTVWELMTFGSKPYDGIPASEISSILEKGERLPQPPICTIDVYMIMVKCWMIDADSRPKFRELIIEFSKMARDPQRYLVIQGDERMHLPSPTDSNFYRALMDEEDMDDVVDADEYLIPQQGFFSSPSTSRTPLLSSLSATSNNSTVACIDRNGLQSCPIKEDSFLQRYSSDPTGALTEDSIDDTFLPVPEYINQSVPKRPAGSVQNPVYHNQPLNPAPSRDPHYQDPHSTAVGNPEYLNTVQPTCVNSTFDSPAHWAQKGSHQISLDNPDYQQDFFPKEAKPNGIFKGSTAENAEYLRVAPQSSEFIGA
T1 sequence (P01133 971-1023 partner limits assumed): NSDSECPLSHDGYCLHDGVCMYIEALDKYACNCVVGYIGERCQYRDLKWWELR
The assay is described as follows: Test (a): in vitro inhibition of the enzyme EGF receptor tyrosine kinase. The class given is biochemical. The settings on record: receptor tyrosine kinase partially purified from A-431 cells, EGF-stimulated. As to the method:
(a) In vitro assay for measuring the effect of a test compound in inhibiting the enzyme EGF receptor tyrosine kinase
Receptor tyrosine kinase was obtained from A-431 cells (derived from human vulval carcinoma) in partially purified form by a method relevant to a method shown in Carpenter et al., J. Biol. Chem., 1979, 254, 4884, Cohen et. al., J. Biol. Chem., 1982, 257, 1523, and Braun et al., J. Biol. Chem., 1984, 259, 2051.
A-431 cells were grown in Dulbecco's modified Eagle's medium (DMEM) containing 5% fetal calf serum (FCS) up to a confluent state. The resultant cells were homogenized in a hypotonic borate/EDTA buffer (pH 10.1). The homogenate was centrifuged at 400×g for 10 minutes at 0° C. to 4° C. […]
The test compound/EGF mixture solution (5 μl) was added to the test enzyme solution (10 μl) and the mixture was incubated at 0° C. to 4° C. for 30 minutes. […] Radioactivity present in the paper-filter was measured by a liquid scintillation counter (Sequence A). […] Receptor tyrosine kinase inhibition was indicated by inhibition ratio (%), which was calculated in accordance with the following equation, provided that the measurement results of sequence A is expressed by SA, the measurement results of sequence B by SB, and the measurement results of sequence C by SC. […] Subsequently, within a concentration range of a test compound providing IC50 value, the extent of inhibition was determined.

The subject of assay [4] is human nasopharyngeal cancer cell line KB. Nature of the assay: Test (b): in vitro inhibition of EGF-stimulated growth of KB cells (MTT). The class given is cell-based. The following applies: EGF 10 ng/ml. As to the method: (b) In vitro assay for measuring the effect of a test compound in inhibiting growth of human nasopharyngeal cancer cell line KB by EGF-stimulation
KB cells were seeded into wells at a density of 1×10^4 to 1.5×10^4 cells per well and grown in DMEM supplemented with 5% FCS (charcoal-stripped) for 24 hours. After incubation for 3 days, cell growth was determined based on the extent of blue color occurrence, which was produced by metabolizing a MTT tetrazolium dye. Subsequently, cell growth was determined in the presence of EGF (10 ng/ml) or in the presence of EGF (10 ng/ml) and a test compound within a predetermined concentration range. Then, an IC50 value could be calculated.

The results in this text go back to patent publication US8895565B2, “Heterocyclic compound and use of the same” (priority 2009, dated 2014).

Where only a bound is given, the exact number is not on record here.

For orientation: ED50 means the midpoint of the dose-response relation. A high value points to weaker potency. By IC50 is commonly meant the concentration that inhibits the measured activity by half. Read a high IC50 as weaker potency in that assay. Turning to `CCOC(=O)c1ccc(CNc2ncnc(C)c2C#Cc2ccc(C(F)(F)F)cc2)o1` [Compound No. 1, Ethyl 5-{6-methyl-5-{[4-(trifluoromethyl)phenyl]ethynyl}pyrimidin-4-ylaminomethyl}-2-furancarboxylate], the “suppression rate in Test (d)” value in assay [1] came out at 68%. In assay [2], this compound yielded an ED50 below 12.1 mg/kg. The IC50 in assay [3] was determined as 240 nM; in assay [4], 800 nM.
For `COC(=O)c1ccc(CNc2ncnc(C)c2C#Cc2ccc(C(F)(F)F)cc2)o1` [Compound No. 2, Methyl 5-(6-methyl-5-{[4-(trifluoromethyl)phenyl]ethynyl}pyrimidin-4-ylaminomethyl)-2-furancarboxylate] the same measures were 69%, below 11.8 mg/kg, 220 nM and 700 nM.
